Each structure is given as a SMILES string.

The source of these data is patent publication US4622422A, “Cyclohexanealkanoic acids” (Merrell Dow Pharmaceuticals Inc., priority 1985, dated 1986).

Test [1] has as its target T1, leukotriene D4 (longitudinal muscle of guinea pig ileum) (Cavia porcellus, UniProt Q2NNR5).
T1 construct: The longitudinal muscle was then carefully dissected from the circular muscle of the ileum; from tissue; host or cells: guinea pig ileum, longitudinal muscle segments
T1 sequence (Q2NNR5 1-340): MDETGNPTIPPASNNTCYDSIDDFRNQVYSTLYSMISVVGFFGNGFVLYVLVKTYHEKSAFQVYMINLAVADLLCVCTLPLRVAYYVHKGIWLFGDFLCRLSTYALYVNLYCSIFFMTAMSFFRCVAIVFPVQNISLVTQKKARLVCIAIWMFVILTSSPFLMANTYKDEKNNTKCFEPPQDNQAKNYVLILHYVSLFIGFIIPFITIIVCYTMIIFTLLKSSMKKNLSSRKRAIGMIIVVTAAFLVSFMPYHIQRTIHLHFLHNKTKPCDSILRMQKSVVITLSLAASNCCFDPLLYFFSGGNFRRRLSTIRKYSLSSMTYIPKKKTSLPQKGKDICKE
Nature of the test: Longitudinal Muscle of Guinea Pig Ileum; antagonism of LTD4-induced contraction. As to conditions: 1 μM Indomethacin, 15 min with test agent, then cumulative LTD4, Arunlakshana and Schild, read-out: G.P. ILEUM pA2 (LTD4) (converted). The test is classed as cell-based. The protocol:
Male, Hartley-Duncan, guinea pigs were sacrificed by cervical dislocation. The terminal portion of the ileum was removed, rinsed, and placed in Burn's modified Tyrode's solution. The longitudinal muscle was then carefully dissected from the circular muscle of the ileum. The longitudinal muscle was cut into 1-2 cm. segments which were placed in a tissue bath containing oxygenated Burn's modified Tyrode's solution warmed to 37° C. A tension of 1.0 gram was then placed on each segment of muscle. After equilibration for 1 hour, 1 μM Indomethacin was added to each bath. After 5 minutes, each tissue segment was then exposed to a concentration of 60 nM leukotriene D4. This response was then considered to be the initial maximal contraction that each segment will produce. After washing the tissue several times, over a 1 hour period, 1 μM Indomethacin was again added to each bath. After a 5 minute period the test agent or vehicle was added to the bath. After 15 minutes, a concentration-response curve was generated using cumulatively increasing concentrations of leukotriene D4. The concentration-response was then compared to the initial maximum contraction. A test compound was considered active, if at concentrations up to 100 μM, it produces a significant shift to the right of the concentration-response relationship to leukotriene D4. The antagonist activity was quantitated in terms of a pA2 value calculated according to the method described by Arunlakshana and Schild, (Brit. J. Pharmac. Chemotherap. 14; 48, 1959).

Test [2] has as its target T2, 3H-LTD4 specific receptor (guinea pig lung membranes) (Cavia porcellus, UniProt Q2NNR5).
T2 construct: from tissue; host or cells: guinea pig lung membranes (30,000 g pellet)
T2 sequence (Q2NNR5 1-340): T1 sequence (Q2NNR5 1-340)
Briefly: 3H-LTD4 - Specific Receptor Binding in Guinea Pig Lung Membranes. As to conditions: inhibition of 3H-LTD4 specific binding; pH 7.6, 37° C., 20-40 min; read-out: G.P. LUNG SPECIFIC BINDING IC50. The protocol:
Male guinea pigs were sacrificed and the lungs were removed and placed in ice cold 50 mM Tris-HCl buffer, pH 7.4. The lungs were then homogenized with a Polytron homogenizer and the homogenate was centrifuged at 1000 g for 10 minutes at 4° C. The supernatant was then centrifuged at 30,000 g for 15 minutes at 4° C. to obtain the membrane pellet. This pellet was resuspended in 50 mM Tris-HCl to provide the working suspension of lung membranes. Binding assays were then carried out in 50 mM Tris-HCl at pH 7.6 and 37° C. using incubation periods of 20-40 min. Separation of bound ^3 H-LTD4 from free ^3 H-LTD4 were performed by rapid vacuum filtration through Whatman GF/B glass fiber filters using ice cold Tris-HCl buffer and three 4 ml washes. Filtration and washing were completed in less than 8 seconds. The radioactivity on the filters was then measured. Specific binding of ^3 H-LTD4 was defined as the binding of ^3 H-LTD4 in the absence of unlabelled LTD4 minus the binding of ^3 H-LTD4 in the presence of 2×10^-7 M unlabelled LTD4. Specific binding of ^3 H-LTD4 was 60-80% of total binding. […] In these tests increasing concentrations of the agent are used to block the ^3 H-LTD4 specific binding. The concentration that reduces the specific binding of ^3 H-LTD4 by 50% is termed the IC50.

The subject of a further test is leukotriene D4. Nature of the test: In vivo leukotriene D4 antagonist activity in anesthetized guinea pigs (modified Konzett-Rossler preparation). Set-up: species or system guinea pig. As to conditions: 10-20 min before 1 μg/ml LTD4 aerosol (1 min), inflation pressure response. The protocol: Compounds of the present invention were also tested for in vivo leukotriene D4 antagonist activity in anesthetized guinea pigs using a modified Konzett-Rossler preparation. Specifically, the guinea pigs were anesthetized with sodium pentobarbital and surgically prepared for artificial ventilation by a constant volume respirator. The inflation pressure produced by the respirator was measured for each inflation of the guinea pigs' lungs. Increases in inflation pressure above baseline are indicative of bronchoconstriction. After establishing a baseline inflation pressure, the guinea pig was exposed for 1 minute to an aerosol generated ultrasonically from a 1 μg/ml solution of leukotriene D4. After the inflation pressure returned to baseline, the guinea pig was exposed to an aerosol generated from a solution of a test compound. Ten to twenty minutes later, the guinea pig was re-exposed to a 1 minute aerosol generated from 1 μg/ml leukotriene D4. This response was then compared to the initial response and the % inhibition of the response was determined.

Consider `CCCCCCCCCCCCC/C=C1\CC[C@@H](CCC(=O)O)[C@@H](O)[C@@H]1SCCC(=O)O` (relative stereo) [Example 15D, (1α,2α,3β,4E)-3-[(2-Carboxyethyl)thio]-2-hydroxy-4-tetradecylidenecyclohexanepropionic acid], for which, in test [1], the Kb is 2000 nM. On the same count and under the same terms, the value for `CCCCCCCCCCCCC/C=C1\CC[C@@H](CC(=O)O)[C@@H](O)[C@H]1SCC(=O)O` (relative stereo) [Example 18, (1α,2α,3α,4E)-3-[(carboxymethyl)thio]-2-hydroxy-4-tetradecylidenecyclohexaneacetic acid] was 30900 nM; that for `CCCCCCCCCCCCC/C=C1\CC[C@@H](CCC(=O)O)[C@@H](O)[C@@H]1SCC(=O)O` (relative stereo) [Example 15C, (1α,2α,3β,4E)-3-[(Carboxymethyl)thio]-2-hydroxy-4-tetradecylidenecyclohexanepropionic acid] was 1620 nM. Take `CCCCCCCCCCCCC/C=C1\CC[C@@H](CC(=O)O)[C@H](O)[C@H]1SCC(=O)O` (relative stereo) [Example 15A, (1α,2β,3α,4E)-3-[(carboxymethyl)thio]-2-hydroxy-4-tetradecylidenecyclohexaneacetic acid]: the IC50 in test [2] stood at 3000 nM. Moreover, in test [1], the Kb is 3390 nM. Further, the “PERCENT INHIBITION” value in the test with leukotriene D4 (5 mg/ml solution aerosolized) worked out at 25.3%; in the test on leukotriene D4 (10 mg/ml solution aerosolized), 64.2%. Turning to `CCCCCCCCCCCCC/C=C1\CC[C@@H](CC(=O)O)[C@H](O)[C@H]1SCCC(=O)O` (relative stereo) [Example 15B, (1α,2β,3α,4E)-3-[(2-Carboxyethyl)thio]-2-hydroxy-4-tetradecylidenecyclohexaneacetic acid], in test [2], the IC50 stood at 400 nM. The Kb in test [1] is 3090 nM. Further, in the test on leukotriene D4 (5 mg/ml solution aerosolized), the “PERCENT INHIBITION” value was 44.3%. With `CCCCCCCCCCCCC/C=C1\CC[C@@H](CCC(=O)O)[C@H](O)[C@H]1SCC(=O)O` (relative stereo) [Example 15E, (1α,2β,3α,4E)-3-[(Carboxymethyl)thio]-2-hydroxy-4-tetradecylidenecyclohexanepropionic acid], in test [1], the Kb is 2240 nM.

Broadly, the IC50 is the point on the concentration scale where inhibition reaches its midpoint.
